{"source": "patent US20250000942A1", "about": "“PEPTIDES AND METHODS OF TRANSPLANTATION AND RESTORATIVE ORGAN FUNCTION” (Prince Biotech, LLC, priority 2017, published 2025)", "type_in_all_cases": "cell-based, human", "key": {"JEG-3 cells [1]": {"test_system": "JEG-3 cells", "assay": "Influence of PIF and P4 on expression of HLA class I molecules (flow cytometry, Western blotting, surface antigen quantification)", "conditions": "1 μg/ml P4, 24 hours", "description": "The cells were then incubated with the HLA-G specific mouse monoclonal antibody MEM-G9m followed by incubation with Alexa Fluor 488 conjugated antibody preparations. Fluorescence was detected by using BD Accuri C6 flow cytometer. The data was analyzed using a Flowing Software V2.5.1. […] Error bar indicates standard deviation from the mean. Statistical analysis was performed with SigmaPlot software. One way Analysis of Variance was employed to test the significance of differences among groups.\nThe collected cells were further tested for expression for class I HLA molecules by using specific monoclonal antibodies.\nTreated and untreated JEG-3 cells, following exposure to test agents were detached, counted, and pelleted as described previously [14]. […] To quantify the final concentration of the proteins we used the Bradford assay following the previously described protocol with some modifications [15]. […] Five μl of each protein sample was then diluted 1:1 with PBS and incubated with the reading reagent at room temperature for 5 min. Finally, the protein concentration was determined using a spectrophotometer, extrapolating each absorbance value over the previously created standard curve. […] A pre-stained standard protein marker (Li-Cor Bioscience) was also loaded onto the gel and run parallel to the protein samples to be analyzed. […]"}, "JEG-3 cells [2]": {"test_system": "JEG-3 cells", "assay": "Effect of PIF and P4 on JEG-3 proteome (2-DE, spot analysis, mass spectrometry)", "protocol": "Cell lysates and their protein concentration were prepared and assessed as previously described Frozen cell pellets were dissolved in hot lysis buffer (1% SDS, 100 mM Tris-HCl), and sonicated. Five percent of 2-mercaptoethanol was added. Samples were then dissolved in solubilisation buffer (8 M urea, 2.5 M thiourea, 4% 3-[(3-cholamidopropyl) dimethylammonio]-1-propanesuflate, 50 mM DTT, 24 mM spermine tetrachloride) at room temperature for 1 h. The samples were centrifuged at 12000×g for 30 min. To concentrate the protein samples, acetone precipitation was used. Once the supernatant was discarded the protein pellets were washed with a mixture of ice-cold methanol-chloroform and re-suspended in isoelectric focusing buffer (IEF) (8 M urea, 2.5 M thiourea, 4% 3-[(3-cholamidopropyl) dimethylammonio]-1-propanesuflate).\nThe IPG strips were then focused using an IPGphor system (BioRad, USA). Rehydrated filter wicks were placed between the electrodes and the IPG strip. […] After IEF, strips were rinsed in deionized water, and stored at −80° C. until the second dimensional […].\nFor second dimensional […], IPG strips were incubated in equilibrium buffer 1 [6 M/l urea, 20% w/v glycerol, 4% w/v SDS, 0.375 M/l Tris-HCL (pH 8.8), 5% 2-mercaptoethanol] for 15 min at room temperature. […] Strips were then rinsed in electrophoresis buffer (60.57 g Tris base, 288.27 g glycine, 20 g SDS, double distilled H2O up to 20 L). The second dimensional analysis was carried out using a Criterion gel system (Bio-Rad). Each strip was placed into the well of a 12% SDS-PAGE gel (Bio-Rad) and sealed with agarosc solution. Electrophoresis was carried out at 50 V for 30 min and following this at 150 V for 4-5 h. The gel was then fixed overnight in fixing solution (50% methanol, 5% acetic acid, 45% water), and stained using the silver staining protocol.\nThe gels were scanned and analyzed using SameSpots analysis software (Nonlinear dynamics Ltd). Digitized images from 12 silver-stained gels were analyzed for spot detection and quantification. Image analysis included spot detection, editing, background subtraction and spot matching. A master image was then created, and all spots in the other gels were matched to this master image both manually and digitally. The size of a protein, which approximates the volume of the spot, was calculated by using the software. Spots identified as differentially present were excised and analyzed using mass spectrometry (MS) analysis.\nIdentified spots were manually excised from the 2-DE gels using a disposable sterile scalpel spot cutter and washed in molecular biology grade water. Each spot was then subjected to in gel digestion alkylation, along with tryptic digestion so as to yield peptide fragments for MS analysis following previously described protocols.\nPeptide digests were subjected to MS analysis at the sub-picomole level through the use of a matrix assisted laser desorption ionization-time of flight (MALDI-TOF MS) so as to generate peptide mass fingerprinting (PMF). The MALDI-TOF analysis was carried out using a Bruker Daltonics Reflex IV instrument using a linear mode with a laser power attenuation setting at 30, as described previously.\nThe expression data were pre-processed by mean-centering (by division and medians), and over median normalized data. A heatmap was generated via hierarchical clustering for examining protein expression and treatment (http://cran.r-project.org). The generation of a heatmap for median centered protein expression data with horizontal hierarchical clustering of different proteins utilized the median linkage agglomeration method and vertical hierarchical clustering of treatment conditions, using complete linkage agglomeration. A correlation distance metric was used for clustering data."}, "JEG-3 cells [3]": {"test_system": "JEG-3 cells", "assay": "ELISA for cytokine secretion by JEG-3 cells", "conditions": "JEG-3, serum-free media, 24 hours, P4 1 μg/ml", "protocol": "At the end of the experiments the supernatant was collected and analyzed for cytokine levels. The concentrations of tumor necrosis factor alpha (TNF-a), interleukin (IL)-1, IL-8, IL-10, interferon gamma (IFN-γ), transforming growth factor beta 1 (TGF-[…]) and granulocyte macrophage colony-stimulating factor (GM-CSF) were measured using ELISA kits (eBioscience), following the manufacturer's instructions."}, "[4]": {"conditions": "P4 1 μg/ml or PIF 200 nM, 24 hours"}}}
{"smiles": "CC(=O)[C@H]1CC[C@H]2[C@@H]3CCC4=CC(=O)CC[C@]4(C)[C@H]3CC[C@]12C", "note": "[P4, Progesterone]", "values": [{"measurement": "levels of HLA-G, -E, -F and -C", "setting": "JEG-3 cells [1]", "result": "increased levels of HLA-G, -E, -F and -C"}, {"measurement": "Average Normalized Volumes, ATP5B (spot 71)", "setting": "JEG-3 cells [2]; [4]", "result": 283.644}, {"measurement": "Average Normalized Volumes, BBB (spot 92)", "setting": "JEG-3 cells [2]; [4]", "result": 544.421}, {"measurement": "Average Normalized Volumes, CD59 (spot 51)", "setting": "JEG-3 cells [2]; [4]", "result": 388.079}, {"measurement": "Average Normalized Volumes, CLIC3 (spot 69)", "setting": "JEG-3 cells [2]; [4]", "result": 220.958}, {"measurement": "Average Normalized Volumes, DCBD2 (spot 67)", "setting": "JEG-3 cells [2]; [4]", "result": 413.865}, {"measurement": "Average Normalized Volumes, EGFR (spot 30)", "setting": "JEG-3 cells [2]; [4]", "result": 313.949}, {"measurement": "Average Normalized Volumes, FOXP3 (spot 98)", "setting": "JEG-3 cells [2]; [4]", "result": 1035.457}, {"measurement": "Average Normalized Volumes, HLAG (spot 89)", "setting": "JEG-3 cells [2]; [4]", "result": 961.078}, {"measurement": "Average Normalized Volumes, HS74L (spot 8)", "setting": "JEG-3 cells [2]; [4]", "result": 407.206}, {"measurement": "Average Normalized Volumes, HSP71 (spot 2)", "setting": "JEG-3 cells [2]; [4]", "result": 328.658}, {"measurement": "Average Normalized Volumes, LMNA (spot 34)", "setting": "JEG-3 cells [2]; [4]", "result": 276.712}, {"measurement": "Average Normalized Volumes, PDIA3 (spot 24)", "setting": "JEG-3 cells [2]; [4]", "result": 425.280}, {"measurement": "Average Normalized Volumes, PRDX2 (spot 66)", "setting": "JEG-3 cells [2]; [4]", "result": 144.399}, {"measurement": "Average Normalized Volumes, PRGR (spot 55)", "setting": "JEG-3 cells [2]; [4]", "result": 277.710}, {"measurement": "Average Normalized Volumes, ZSC21 / TTP (spot 32)", "setting": "JEG-3 cells [2]; [4]", "result": 123.015}, {"measurement": "number of differentially expressed proteins up-regulated (of 19)", "setting": "JEG-3 cells [2]; hierarchical clustering, vs control cells", "result": "five"}, {"measurement": "IFN-γ secretion", "setting": "JEG-3 cells [3]", "result": 10, "unit": "pg/mL"}, {"measurement": "TNF-α secretion", "setting": "JEG-3 cells [3]", "result": 1, "unit": "pg/mL"}, {"measurement": "GM-CSF secretion", "setting": "JEG-3 cells [3]; PIF 200 nM, mean ± SEM", "result": "310 ± 36.3", "unit": "pg/mL"}, {"measurement": "IL-1β secretion", "setting": "JEG-3 cells [3]; PIF 200 nM, mean ± SEM", "result": "334 ± 27.7", "unit": "pg/mL"}, {"measurement": "IL-8 secretion", "setting": "JEG-3 cells [3]; PIF 200 nM, mean ± SEM", "result": "685 ± 58.2", "unit": "pg/mL"}, {"measurement": "TGF-β1 secretion", "setting": "JEG-3 cells [3]; PIF 200 nM, mean ± SEM", "result": "398 ± 32.4", "unit": "pg/mL"}]}
